The values below come from US5925667A, “Pyrrolidine derivative, anti-ulcer drug, and antibacterial drug” (Shiseido Co., Ltd., priority 1997, dated 1999).

Data set [1] in a line: MTT: Cell Damaging and Protecting Effect Test. The data set is classed as cell-based, male Japanese White rabbit. Conditions: rabbit, gastric mucosa cells, final concentration 10^-4 M, smaller value is better, read-out: cell damaging rate (MTT). The text has this: MTT: Cell Damaging and Protecting Effect Test
It is confirmed that there is no toxicity in cell level. Those having a toxicity in cell level are inappropriate as an anti-ulcer drug.
A male Japanese White rabbit (2.5 to 3 kg) was anesthetized to death by Nembutal™ and, immediately thereafter, its stomach was removed. The greater curvature of the stomach was incised so as to remove the stomach contents therefrom. After the mucosal surface was washed with HBSS (Hanks' Balanced Salt Solution), the stomach in ice-cooled HBSS was transferred to a laboratory. Then, after the pyloric antrum was removed, the gastric corpus mucosa was separated by a spatula and then minced into 2 to 3 mm^3 pieces in BME (Basal Medium Eagle). Thereafer, these pieces were shaken at 120 to 130 cycles/minute for 15 minutes at 37° C. in BME 60 ml containing 280 U/ml of dispase and 30 to 50 U/ml of collagenase. Here, the concentration of collagenase was appropriately changed for each lot in view of the state of cells. The pieces were washed twice with EBSS (Earle's Balanced Salt Solution) containing 1 mM of EDTA and then shaken in MEM (Minimum Essential Medium) containing 1 mM of EDTA at 37° C. for 5 minutes. Subsequently, they were shaken in the dispase and collagenase having the same concentrations as those mentioned above for 15 minutes so as to remove the supernatant and then further shaken at 37° C. for 50 to 60 minutes at 120 to 130 cycles/minute. Then, after being washed twice with HBSS, Ham F12 containing 2% of Ultrocer G™ was used to attain the concentration of 1×10^6 cells/ml. Thus formed suspension was dispensed in each well of a 96-well plate by 200 μl. The plate was incubated in the atmosphere composed of 5% CO2 and 95% air at 37° C. for three days so as to attain a confluent state and then subjected to MTT assay.
The sample compound was dissolved in DMSO so as to attain a concentration of 10^-2 M and then diluted with HBSS containing 2% of Ultrocer G™ so as to attain a final concentration of 10^-4 M. To each group, which 8 wells were used for, 10 μl of MTT reagent was added immediately after 100 μl of the medium in each well was exchanged for same volume of the resulting solution of the sample compound. After being incubated in an atmosphere composed of 5% CO2 and 95% air at 37° C. for 4 hours, thus formed solution was centrifuged and then its supernatant was discarded. Subsequently, 100 μl of 100% ethanol was added to the residue so as to dissolve MTT formazan. Then, the absorbance (OD: 570 to 630) was measured by a microplate reader. This method utilizes a phenomenon in which MTT is changed to MTT formazan only by mitochondria of living cells so as to change color.
The cell damaging or cell protecting effect of the sample compound at the final concentration of 10^-4 M was expressed as cell damaging rate (%) as follows:
cell damaging rate (%)=(1-(absorbance in sample group/absorbance in control group))×100
Accordingly, the smaller value is better in the cell damaging rate.

Data set [2] has as its system Slc:ICR mice. The arrangement: species or system male Slc:ICR mice. Conditions: mouse, in vivo. The method, then:
AT: Single Dose Toxicity Pretest
Male Slc:ICR mice (5-week-old) were used. Each group has 3 to 5 mice and each mouse was fasted, but allowed free access to water, for 4 to 5 hours from 9 a.m. in the test day. Then, 2,000 mg/10 ml/kg of the sample compound dissolved or suspended in an aqueous solution of 0.5% sodium carboxymethyl cellulose was orally administered thereto. To a control, only the vehicle was administered. […] The body weight was measured before and after the fasting as well as at the same time everyday. The dead animals were immediately subjected to autopsy and their organs were observed by naked eyes. Also, the living animals were sacrificed with ether or carbon dioxide one week after the administration and then their organs were observed by naked eyes.
The toxicity at the single dose of 2,000 mg/kg of the sample compound was expressed as being classified into 5 levels.
5: Mortality rate is 0%; no toxicity is found at all both in behavior and organs.
4: Mortality rate is 0%; while no toxicity is found in organs, slight toxicity is observed in behavior or body weight increase.
3: While there is a dead animal (though not all the animals are dead), no toxicity is found in organs.
2: Regardless of whether there is a dead animal or not, toxicity is found in organs.
1: All the animals are dead.

For data set [3], the system named is HP NCTC 11637. As to the kind of experiment: AHP: Antibacterial Activity Test Against Helicobacter pyroli (agar dilution MIC). The data set is classed as cell-based. The conditions noted are these: NCTC11637, 168 h, 7 days. (In general: Agar dilution tests growth on a series of plates holding different concentrations.)

Molecules are shown by their SMILES. Bounds are passed on as bounds.

In the case of `CCN1CCCC1CNC(=O)c1cc(OCC=C(C)C)ccc1OCC=C(C)C` (stereo not shown) [Example 6, 1-ethyl-2-(2,5-diprenyloxybenzoylaminomethyl)pyrrolidine], the cytotoxicity at 4 h, 100 µM in data set [1] stood at 34%. The “toxicity at single dose (AT), 5 levels” value in data set [2] turned out to be 3.

Consider `CCN1CCCC1CNC(=O)c1ccc(OCC=C(C)C)c(OCC=C(C)C)c1` (stereo not shown) [Example 7, 1-ethyl-2-(3,4-diprenyloxybenzoylaminomethyl)pyrrolidine], for which, in data set [1], the cytotoxicity at 4 h, 100 µM was found to be 28%. For the same molecule, the “toxicity at single dose (AT), 5 levels” value in data set [2] is on record as 3.

Broadly, the MIC is the lowest concentration that inhibits growth of the organism. Higher therefore signals weaker potency. In the case of `CCN1CCCC1CNC(=O)c1cc(OC/C=C(\C)CCC=C(C)C)ccc1OC/C=C(\C)CCC=C(C)C` (stereo not shown) [Example 10, 1-ethyl-2-(2,5-digeranyloxybenzoylaminomethyl)pyrrolidine], the cytotoxicity at 4 h, 100 µM in data set [1] stood at 15%. Further, the “toxicity at single dose (AT), 5 levels” value in data set [2] came to 3. The molecule further had a minimum inhibitory concentration (MIC) in data set [3] below 3.13 µg/mL.
